# Key:
# [1] = target: T1, CB1 receptor (hCB1) (Homo sapiens, UniProt P21554); experiment: Two-electrode voltage-clamp, CB1-GIRK1/GIRK2-RGS4 coupling system expressed in Xenopus oocytes; assay type: cell-based
# T1 construct: expressed in transfected cells; host or cells: Xenopus laevis oocytes (cRNA injection)
# [2] = target: CaV3.1 (Homo sapiens, UniProt O43497)
# Source text: (§1) Electrophysiological measurements.
# (§2) (A), (B), (C), and (D) represent that
# (§3) currents through the channels.
# (§4) in oocytes, as described before (6-8).
# [3] = target: KV1.5 (Homo sapiens, UniProt P22460)
# Source text: as §1, §2, §3, §4
# [4] = target: NaV1.5 (Homo sapiens, UniProt Q14524)
# Source text: as §1, §2, §3, §4
# [5] = target: hERG (Homo sapiens, UniProt Q12809)
# hERG, sequence (Q12809 whole entry): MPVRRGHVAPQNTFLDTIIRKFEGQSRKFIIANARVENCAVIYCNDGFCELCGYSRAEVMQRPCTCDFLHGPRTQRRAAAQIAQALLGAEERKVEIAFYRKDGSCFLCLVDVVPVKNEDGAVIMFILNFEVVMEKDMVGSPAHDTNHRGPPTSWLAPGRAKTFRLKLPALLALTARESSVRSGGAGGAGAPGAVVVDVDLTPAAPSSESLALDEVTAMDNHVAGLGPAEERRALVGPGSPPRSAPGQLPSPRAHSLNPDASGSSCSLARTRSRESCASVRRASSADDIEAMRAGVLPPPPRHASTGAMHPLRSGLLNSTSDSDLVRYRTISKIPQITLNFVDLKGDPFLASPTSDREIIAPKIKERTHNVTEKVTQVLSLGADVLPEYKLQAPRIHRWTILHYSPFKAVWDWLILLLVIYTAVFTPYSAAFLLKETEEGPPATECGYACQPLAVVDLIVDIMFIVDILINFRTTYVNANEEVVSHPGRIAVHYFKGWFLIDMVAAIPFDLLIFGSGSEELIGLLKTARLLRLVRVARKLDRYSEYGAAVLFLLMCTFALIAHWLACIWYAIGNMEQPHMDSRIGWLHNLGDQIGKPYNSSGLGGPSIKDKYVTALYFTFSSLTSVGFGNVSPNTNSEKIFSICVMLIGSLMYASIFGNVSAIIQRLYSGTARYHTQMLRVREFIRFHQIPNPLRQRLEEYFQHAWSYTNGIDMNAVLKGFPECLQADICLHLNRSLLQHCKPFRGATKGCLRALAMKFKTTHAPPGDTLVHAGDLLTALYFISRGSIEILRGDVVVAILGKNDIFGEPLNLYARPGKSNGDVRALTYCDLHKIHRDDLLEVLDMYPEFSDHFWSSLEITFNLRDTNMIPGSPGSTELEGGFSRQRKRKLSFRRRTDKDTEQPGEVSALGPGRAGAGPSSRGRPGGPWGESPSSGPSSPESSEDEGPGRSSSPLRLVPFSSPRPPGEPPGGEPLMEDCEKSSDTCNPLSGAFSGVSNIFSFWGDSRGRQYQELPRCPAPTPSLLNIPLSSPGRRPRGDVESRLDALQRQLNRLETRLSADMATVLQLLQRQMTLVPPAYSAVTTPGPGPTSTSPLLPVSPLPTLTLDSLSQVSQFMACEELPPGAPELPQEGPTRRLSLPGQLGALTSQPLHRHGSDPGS
# Source text: as §1, §2, §3, §4
# [6] = tested on: C57BL/6J mice; experiment: Open Field (OF); assay type: in vivo, mouse; details: i.p.
# Experimental: (§5) Animal housing. Forty-eight Male C57BL/6J mice were purchased from Janvier Labs (Le Genest-Saint-Isle, France) and were time-specifically housed in a 12 h light-dark cycle (lights on at 7 am), with ad libitum water and food in conditioned rooms (22 °C, humidity ~60%).
# (§6) Behavior assays. All mice were subjected to a behavioral test battery that consisted of several general performance tasks of locomotor activity, exploratory and anxiety-like behavior, and learning and memory. Mice were divided into four groups: Vehicle, OS (2 mg/kg), WIN55 (0.5 mg/kg), or OS + WIN. Each group consisted of 7–14 mice that received two i.p injections before each test, with a 10 min interval between each injection. Veh + Veh were injected with PBS. Veh + WIN were injected with PBS and WIN55. Veh + OS were injected with PBS and OS. OS + WIN were injected with OS and WIN55. PBS was used as vehicle as it was used for dilution of drugs. Tests were performed in the order described below after 10 min of the last injection, with a 24 h interval between each test.
# Open Field (OF): One day after the cage activity test, mice were tested in the OF paradigm. The OF aimed to test the OS, WIN, and OS + WIN effect on animal locomotion and exploratory behavior. Animals were placed in the test room one hour before starting the test. For the OF, animals were placed in a plexiglass box (60 × 60 × 60 cm) divided into three zones (center, periphery, and corners) for 10 min and left free to explore. Total distance and time in zones were counted. Here, more time in the center meant an anxiolytic effect, and a higher distance walking meant an increase in locomotor activity. For this test, we used Veh (n = 8), OS (n = 10), WIN (n = 7), OS + WIN (n = 8).
# [7] = tested on: C57BL/6J mice; experiment: Elevated Plus Maze (EPM); assay type: in vivo, mouse; details: i.p., OS 2 mg/kg, WIN 0.5 mg/kg
# Experimental: as §5
# as §6, with “Tests were performed in the order described below after 10 min of the last injection, with a 24 h interval between each test.” left out
# Elevated Plus Maze (EPM): EPM was used to assess the effects of OS, WIN, and OS + WIN on anxiety-like behavior. […] Time in open and closed arms was measured over 10 min. Anxiety index (AI) was calculated using the following equation: AI = 1 − [([time the animal remained in the open arms (seconds)/test duration] + [input frequency in the open arms/total number of entries])/2]. […]
# [8] = tested on: C57BL/6J mice; experiment: Morris Water Maze (MWM); assay type: in vivo, mouse; details: i.p., OS 2 mg/kg
# Experimental: as §5, §6
# Morris Water Maze (MWM): MWM [32] was used to assess the effects of OS, WIN, and OS + WIN in memory one day after the EPM test. MWM is a gold standard test to assess learning and memory consisting of 10 days of training and two probe trials in a pool with water at a temperature of 26 °C, with one submersed platform invisible to mice. Each mouse could try to find the platform for 100 s, four times per day, with an inter-trial interval of 15–30 min. In each trial, animals were released randomly from each of the four starting positions. This protocol of training was repeated for ten days (training sessions). The platform was removed on the 6th and 11th days, and the animals were left free to swim for 100 s (probe trials). Right after the first probe trial (day 6), animals were trained again with the platform at the same place. During the training sessions, the mean latency to find the platform for the session was calculated for each animal as the average of the four trials of the day. During the probe trials, the pool was divided into four equal virtual quadrants, and the time spent in the target quadrant (TQ) (i.e., the quadrant where the platform was located during the training sessions) was assessed as a measure of memory retention. For this test, we used Veh (n = 9), OS (n = 8), WIN (n = 8), OS + WIN (n = 14).
# [9] = target: 5-HT4aR (Mus musculus, UniProt P97288)
# [10] = target: H4R (Homo sapiens, UniProt Q9H3N8)
# H4R, sequence (Q9H3N8 whole entry): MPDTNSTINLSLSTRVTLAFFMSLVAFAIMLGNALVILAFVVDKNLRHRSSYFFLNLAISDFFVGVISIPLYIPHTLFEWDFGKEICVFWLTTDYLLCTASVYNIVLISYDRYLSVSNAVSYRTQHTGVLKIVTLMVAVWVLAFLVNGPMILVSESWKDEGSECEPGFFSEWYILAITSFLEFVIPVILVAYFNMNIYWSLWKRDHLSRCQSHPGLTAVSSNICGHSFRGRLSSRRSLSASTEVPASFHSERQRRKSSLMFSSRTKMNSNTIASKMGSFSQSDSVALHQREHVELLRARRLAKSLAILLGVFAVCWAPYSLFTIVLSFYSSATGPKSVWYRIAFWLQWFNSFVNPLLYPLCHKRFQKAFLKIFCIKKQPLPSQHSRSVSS
# [11] = target: α7-nAChR (Homo sapiens, UniProt P36544)
# [12] = target: KV7.1 (Homo sapiens, UniProt P51787)
# KV7.1, sequence (P51787 whole entry): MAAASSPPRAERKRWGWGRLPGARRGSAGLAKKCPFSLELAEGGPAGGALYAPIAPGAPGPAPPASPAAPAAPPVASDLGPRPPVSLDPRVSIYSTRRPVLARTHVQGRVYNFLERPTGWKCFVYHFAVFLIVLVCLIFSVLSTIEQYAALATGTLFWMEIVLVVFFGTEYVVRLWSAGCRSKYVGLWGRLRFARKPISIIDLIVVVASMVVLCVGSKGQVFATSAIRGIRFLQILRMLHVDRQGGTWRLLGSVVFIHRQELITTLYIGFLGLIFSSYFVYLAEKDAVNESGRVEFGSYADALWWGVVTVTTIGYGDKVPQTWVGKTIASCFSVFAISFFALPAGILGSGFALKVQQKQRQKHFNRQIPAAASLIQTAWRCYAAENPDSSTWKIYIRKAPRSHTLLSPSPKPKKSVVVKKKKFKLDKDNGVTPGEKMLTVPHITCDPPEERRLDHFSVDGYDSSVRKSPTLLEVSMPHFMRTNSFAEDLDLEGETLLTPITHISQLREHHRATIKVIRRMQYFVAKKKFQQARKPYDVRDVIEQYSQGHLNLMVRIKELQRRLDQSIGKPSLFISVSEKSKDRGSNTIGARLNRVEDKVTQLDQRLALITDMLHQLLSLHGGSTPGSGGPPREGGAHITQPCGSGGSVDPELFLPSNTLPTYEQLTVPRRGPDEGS
# [13] = tested on: TRPV1; parameters: method as in PMID 17279090; details: HEK cells overexpressing TRPV1; read-out: IC50 as antagonist of TRPV1; cited from earlier work
# [14] = tested on: chimeric CB1/2 receptor; experiment: Two-electrode voltage-clamp, chimeric CB1/2-GIRK1/GIRK2-RGS4 coupling system expressed in oocytes; details: 100 μM OS + 0.5 μM WIN55,212-2
# T1 sequence (P21554 whole entry): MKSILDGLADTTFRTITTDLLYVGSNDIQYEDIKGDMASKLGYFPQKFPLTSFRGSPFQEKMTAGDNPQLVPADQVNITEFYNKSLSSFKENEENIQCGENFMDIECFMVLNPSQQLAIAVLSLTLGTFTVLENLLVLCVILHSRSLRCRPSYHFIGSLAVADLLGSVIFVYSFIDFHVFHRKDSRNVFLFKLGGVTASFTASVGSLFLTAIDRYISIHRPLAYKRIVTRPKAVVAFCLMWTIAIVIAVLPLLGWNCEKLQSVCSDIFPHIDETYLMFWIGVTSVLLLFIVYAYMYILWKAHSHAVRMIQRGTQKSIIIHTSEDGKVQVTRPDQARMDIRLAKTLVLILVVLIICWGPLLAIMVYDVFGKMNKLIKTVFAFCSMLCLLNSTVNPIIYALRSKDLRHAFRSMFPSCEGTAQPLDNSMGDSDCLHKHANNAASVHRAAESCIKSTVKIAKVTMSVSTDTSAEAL
# CaV3.1, sequence (O43497 whole entry): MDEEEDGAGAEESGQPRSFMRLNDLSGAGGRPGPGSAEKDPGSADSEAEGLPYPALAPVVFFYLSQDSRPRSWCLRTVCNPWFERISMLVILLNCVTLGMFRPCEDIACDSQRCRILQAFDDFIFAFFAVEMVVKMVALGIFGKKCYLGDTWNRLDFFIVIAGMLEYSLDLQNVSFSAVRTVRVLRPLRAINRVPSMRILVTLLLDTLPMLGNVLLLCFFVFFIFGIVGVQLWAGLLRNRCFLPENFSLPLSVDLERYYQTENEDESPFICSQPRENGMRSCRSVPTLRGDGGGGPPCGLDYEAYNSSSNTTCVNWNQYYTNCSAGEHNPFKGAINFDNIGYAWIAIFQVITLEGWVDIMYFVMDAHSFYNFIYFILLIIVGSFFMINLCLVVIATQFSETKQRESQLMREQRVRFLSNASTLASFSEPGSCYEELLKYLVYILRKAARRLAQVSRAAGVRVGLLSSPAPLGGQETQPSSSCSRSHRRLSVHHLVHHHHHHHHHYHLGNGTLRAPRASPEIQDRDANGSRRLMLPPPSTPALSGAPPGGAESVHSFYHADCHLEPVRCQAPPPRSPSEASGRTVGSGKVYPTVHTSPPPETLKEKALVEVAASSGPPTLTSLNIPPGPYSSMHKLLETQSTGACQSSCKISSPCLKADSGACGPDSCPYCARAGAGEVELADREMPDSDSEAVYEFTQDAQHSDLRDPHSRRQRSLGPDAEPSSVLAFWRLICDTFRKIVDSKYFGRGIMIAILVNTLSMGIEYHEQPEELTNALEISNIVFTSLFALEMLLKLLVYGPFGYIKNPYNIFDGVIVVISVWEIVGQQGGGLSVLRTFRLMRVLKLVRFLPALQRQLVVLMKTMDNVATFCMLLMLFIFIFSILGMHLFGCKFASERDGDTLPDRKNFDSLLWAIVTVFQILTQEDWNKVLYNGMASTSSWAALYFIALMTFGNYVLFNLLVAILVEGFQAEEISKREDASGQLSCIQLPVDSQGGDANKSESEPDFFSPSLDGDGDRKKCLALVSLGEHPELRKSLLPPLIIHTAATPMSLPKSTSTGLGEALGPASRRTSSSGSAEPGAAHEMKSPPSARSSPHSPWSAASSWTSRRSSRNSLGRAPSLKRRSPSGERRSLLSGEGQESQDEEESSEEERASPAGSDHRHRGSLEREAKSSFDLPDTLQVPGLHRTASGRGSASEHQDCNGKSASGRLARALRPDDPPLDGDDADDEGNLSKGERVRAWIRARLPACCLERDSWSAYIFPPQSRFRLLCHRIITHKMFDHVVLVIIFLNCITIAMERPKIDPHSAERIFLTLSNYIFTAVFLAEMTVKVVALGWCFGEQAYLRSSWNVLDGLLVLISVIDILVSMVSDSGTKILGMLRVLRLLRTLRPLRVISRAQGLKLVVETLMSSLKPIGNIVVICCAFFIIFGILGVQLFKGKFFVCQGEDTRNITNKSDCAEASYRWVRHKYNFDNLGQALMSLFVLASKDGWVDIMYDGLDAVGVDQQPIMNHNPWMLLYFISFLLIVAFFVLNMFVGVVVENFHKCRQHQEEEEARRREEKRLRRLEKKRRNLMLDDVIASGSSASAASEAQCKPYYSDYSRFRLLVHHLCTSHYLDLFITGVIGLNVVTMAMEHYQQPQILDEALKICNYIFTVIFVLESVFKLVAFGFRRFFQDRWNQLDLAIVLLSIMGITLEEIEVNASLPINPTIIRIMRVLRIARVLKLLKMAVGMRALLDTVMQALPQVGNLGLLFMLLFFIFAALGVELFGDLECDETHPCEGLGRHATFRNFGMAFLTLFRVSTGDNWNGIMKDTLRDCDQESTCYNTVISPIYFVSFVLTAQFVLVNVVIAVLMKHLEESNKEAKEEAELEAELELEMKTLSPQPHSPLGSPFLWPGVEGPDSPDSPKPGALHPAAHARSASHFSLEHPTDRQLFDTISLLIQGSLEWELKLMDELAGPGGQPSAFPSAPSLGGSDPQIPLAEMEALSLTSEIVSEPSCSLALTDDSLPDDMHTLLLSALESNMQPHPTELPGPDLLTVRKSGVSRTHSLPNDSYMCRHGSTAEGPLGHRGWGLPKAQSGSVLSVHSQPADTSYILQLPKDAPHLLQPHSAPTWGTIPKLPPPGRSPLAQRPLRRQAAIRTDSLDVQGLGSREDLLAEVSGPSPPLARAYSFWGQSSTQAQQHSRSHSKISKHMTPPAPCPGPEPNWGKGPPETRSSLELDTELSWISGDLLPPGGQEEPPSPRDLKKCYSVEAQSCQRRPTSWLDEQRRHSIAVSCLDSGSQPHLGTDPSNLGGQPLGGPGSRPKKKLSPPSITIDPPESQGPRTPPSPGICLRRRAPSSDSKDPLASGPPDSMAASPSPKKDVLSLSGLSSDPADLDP
smiles,measurement,setting,value
"CCCCCCCC/C=C\CCCCCCCC(=O)NCCc1c[nH]c2ccc(O)cc12 [OS, oleoyl serotonin]","Effect on WIN55,212-2-induced inward K+ currents (IK,WIN+OS)","[1]; 100 μM OS co-applied with 0.3 μM WIN55,212-2",inhibited
same,"Effect of OS alone on IK,basal","[1]; 100 μM OS, 20–30 s, in HK","did not change the response of IK,basal"
same,IC50,"[1]; IC50 of blocking CB1 receptor activated by WIN55,212-2, 0.03 μM WIN + OS",2.4 µM
same,IC50,"[1]; IC50 of blocking CB1 receptor activated by WIN55,212-2, 0.1 μM WIN + OS",6.5 µM
same,IC50,"[1]; IC50 of blocking CB1 receptor activated by WIN55,212-2, 0.3 μM WIN + OS",16.2 µM
same,IC50,"[1]; IC50 of blocking CB1 receptor activated by WIN55,212-2, 1 μM WIN + OS",34.1 µM
same,Mode of antagonism,"[1]; against WIN55,212-2",competitively blocked
same,Activity in selectivity screening,[2],did not show significant activity
same,Activity in selectivity screening,[3],did not show significant activity
same,Activity in selectivity screening,[4],did not show significant activity
same,Activity in selectivity screening,[5],did not show significant activity
same,Effect of OS injection on the WIN-induced decrease of time in the periphery,[6]; OS 2 mg/kg before WIN 0.5 mg/kg,prevented this decrease
same,Total distance walked in open field (locomotion),"[6]; OS 2 mg/kg, WIN 0.5 mg/kg, 10 min test",neither OS nor WIN affected locomotion
same,Time spent in the center zone of open field,"[6]; OS 2 mg/kg, WIN 0.5 mg/kg, compared with Veh + WIN",spent more time than the WIN-only group
same,"Anxiety-like behavior (time in open and closed arms, anxiety index)",[7],did not exhibit significant effects
same,"Time spent in the target quadrant (TQ), first probe trial",[8]; 100 s trial,more than 25 s
same,Performance in first probe trial vs control (time in target quadrant),[8]; day 6,performed worse than the control
same,Activity in selectivity screening,[9],did not show significant activity
same,Activity in selectivity screening,[10],did not show significant activity
same,Activity in selectivity screening,[11],did not show significant activity
same,Activity in selectivity screening,[12],did not show significant activity
same,IC50,[13],2.57 µM
same,"Effect on WIN55,212-2-induced receptor-dependent inward K+ currents (IK,WIN)",[14],did not change the response
